Laboratory results as given in patent US20050208496A1, “Methods of testing for bronchial asthma or chronic obstructive pulmonary disease” (Genox Research, Inc., priority 2002, published 2005).

Test system: respiratory epithelial cells
Conditions: lot 2 Day 7 AI

## IL-13: human IL-13 (Peprotech, Inc.) added to the medium at 50 ng/mL to stimulate respiratory epithelial cells
  AI770116 (70124_at) expression change: −5.1
  AI798733 (64163_at) expression change: −3.3
  AI829641 (84270_at) expression change: −39.5
  AI917602 (49985_at) expression change: −4.1
  AI923984 33546_at expression change: −4.4
  AI948584 48086_at expression change: −13.1
  AI971023 48539_at expression change: −5.3
  AI984780 (52384_s_at) expression change: −4
  AL040936 (45684_at) expression change: −4.5
  AQP5 32909_at expression change: −4.2
  ARHGEF4 36524_at expression change: −6.6
  ARHV (82231_at) expression change: −4
  AW022213 (79520_at) expression change: −5.4
  AW025596 52634_at expression change: −9
  AW025596 52637_g_at expression change: −20.6
  B4GALT5 56373_at expression change: −2.5
  BPGM (51261_at) expression change: −2.4
  CBLB 514_at expression change: −3.2
  CBLB 35632_at expression change: −2.1
  COL12A1 (44730_at) expression change: −6.8
  CRABP-II 1057_at expression change: −12.7
  CRABP-II 41783_at expression change: −11.3
  Clorf28 50075_at expression change: −5.7
  DHCR24 (74557_s_at) expression change: −6.8
  DKFZp434K1210 44682_at expression change: −2.4
  DREV1 (63813_at) expression change: −2.1
  DSC3 (79615_at) expression change: −2.4
  DSC3a, b 47119_at expression change: −2.7
  DSC3a, b 79615_at expression change: −2.4
  EIF4EBP1 (54152_at) expression change: −2.7
  EVPK 39569_at expression change: −2.7
  FKBP5 (46271_at) expression change: −21.2
  FLJ10298 (62490_f_at) expression change: −5.4
  FLJ10718 52072_at expression change: −8.7
  FLJ12541 43546_at expression change: −7.4
  FLJ20048 (49196_at) expression change: −2
  FLJ20373 54030_at expression change: −1.7
  FLJ20500 43853_at expression change: −2.4
  FLJ23309 45563_f_at expression change: −2.4
  FLJ23516 47534_at expression change: −3.2
  GABRP 40339_at expression change: −28
  GAS41 (64121_at) expression change: −2
  GJA1 32531_at expression change: −5.5
  GK (61873_at) expression change: −2.1
  GPD2 42720_at expression change: −2.8
  GSTA3 58023 at expression change: −9.1
  HEY1 44783_s_at expression change: −9.2
  HIN-1 (46200_at) expression change: −38.7
  HSPC195 44705_at expression change: −5.1
  ID1 36619_r_at expression change: −2.5
  IL20RA 42969_at expression change: −2.9
  IVL 36355_at expression change: −10.6
  K1IAA1102 (64345_s_at) expression change: −4.9
  KCNMA1 (47575_g_at) expression change: −7
  KCNMA1 (53796_at) expression change: −6.1
  KIAA0878 (48793_at) expression change: −2
  KIAA1376 (62972_at) expression change: −3.9
  KIAA1376 (64047_at) expression change: −4.2
  KIAA1547 58531_g_at expression change: −2.6
  KLF7 (42769_at) expression change: −4.7
  KRT6B (62998_at) expression change: −5.5
  LCE 45605_at expression change: −2.6
  LMO4 1452_at expression change: −3.9
  LOC51297 (49616_at) expression change: −24.3
  LOC51297 (55440_at) expression change: −33.7
  LOC51297 (55442_g_at) expression change: −33.7
  LOC51316 (63342_at) expression change: −5
  LOC55893 (64071_at) expression change: −2.6
  LOC129642 (42065_at) expression change: −4.9
  LOC129642 (58288_at) expression change: −4.5
  LOC131177 (43849_s_at) expression change: −13.3
  LOC131177 (45394_s_at) expression change: −7.1
  MGC12536 46924_at expression change: −3.1
  MGC14128 55924_at expression change: −4.1
  MGC14128 (51669_r_at) expression change: −5
  MGC14597 (46030_at) expression change: −5.4
  MGC16207 43412_s_at expression change: −2.8
  MGC16207 (65876_at) expression change: −3.4
  N52554 47432_at expression change: −1.7
  N71183 52473_at expression change: −3
  PR01489 57777_at expression change: −4.5
  PSCA (63958_at) expression change: −9.8
  RGC32 (57044_s_at) expression change: −2.4
  RIN1 1778_g_at expression change: −7.5
  SCNN1B 39682_at expression change: −15
  SCYB14 (65823_at) expression change: −2.5
  SEMA4B (46709_at) expression change: −2.5
  SERPINA3 (75248_at) expression change: −46.4
  SLC11A3 (45826_at) expression change: −3.8
  SLC34A2 (48048_at) expression change: −4.3
  SPON2 52576_s_at expression change: −5.8
  SPRR1B 37160_at expression change: −2.8
  STEAP 40297_at expression change: −3.7
  T52027 (63150_at) expression change: −3.5
  TGFBI (68339_at) expression change: −4.9
  TNFAIP2 (74633_at) expression change: −4.2
  TNNT1 36113_s_at expression change: −12.2
  TNRC3 41246_at expression change: −5
  TPM1 36790_at expression change: −4.8
  TPM1 36791_g_at expression change: −6
  TPM1 36792_at expression change: −6.3
  UCP2 37591_at expression change: −45.5
  UGB 39220_at expression change: −62.8
  VEGFC 1934_s_at expression change: −4.3
  VIM 34091_s_at expression change: −11.6
  W55956 46700_at expression change: −2.7
  W72331 49486 at expression change: −11.4
